Source: patent US9113629B2, “4-amino-6-(4-substituted-phenyl)-picolinates and 6-amino-2-(4-substituted-phenyl)-pyrimidine-4-carboxylates and their use as herbicides” (DOW AGROSCIENCES LLC, priority 2013, dated 2015)
Like-named read-outs stand apart in the source and are kept apart here.

Legend:
[1] = system: Key Broadleaf Weed and Crop Species; assay: Post-emergent Test II herbicidal activity (Table 5); format: in vivo; conditions: post-emergence, 336 h, 14 days after application; for pest or weed control at 70 g/ha: application rate 70 g ai/ha; for pest or weed control at 140 g/ha: application rate 140 g ai/ha
Method in brief: (§1)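 Injury was rated visually 14 d after treatment on a 0–100% scale against untreated controls. Test compounds, formulated with crop oil concentrate and surfactant and serially diluted down to 1/16× of the top rate, were applied by track sprayer at 187 L/ha onto first- to second-true-leaf seedlings.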

[2] = system: Key Grass and Sedge Weeds as well as Grass Crops; assay: Post-emergent Test II herbicidal activity (Table 6); format: in vivo; conditions: post-emergence, 336 h; for pest or weed control at 70 g/ha: 70 g ai/ha; for pest or weed control at 140 g/ha: 140 g ai/ha
Method in brief: as §1

[3] = ABUTH: velvetleaf (Abutilon theophrasti), read-out: Visual Growth Reduction (%) 14 Days After Application, ABUTH
[4] = AMARE: redroot pigweed (Amaranthus retroflexus), read-out: Visual Growth Reduction (%) 14 Days After Application, AMARE
[5] = BRSNN: oilseed-rape, canola (Brassica napus), read-out: Visual Growth Reduction (%) 14 Days After Application, BRSNN
[6] = CHEAL: lambsquarters (Chenopodium album), read-out: Visual Growth Reduction (%) 14 Days After Application, CHEAL
[7] = EPHHL: wild poinsettia (Euphorbia heterophylla), read-out: Visual Growth Reduction (%) 14 Days After Application, EPHHL
[8] = HELAN: sunflower (Helianthus annuus), read-out: Visual Growth Reduction (%) 14 Days After Application, HELAN
[9] = VIOTR: wild pansy (Viola tricolor), read-out: Visual Growth Reduction (%) 14 Days After Application, VIOTR
[10] = CYPES: yellow nutsedge (Cyperus esculentus), read-out: Visual Growth Reduction (%) 14 Days After Application, CYPES
[11] = DIGSA: crabgrass (Digitaria sanguinalis), read-out: Visual Growth Reduction (%) 14 Days After Application, DIGSA
[12] = ECHCG: barnyardgrass (Echinochloa crus-galli), read-out: Visual Growth Reduction (%) 14 Days After Application, ECHCG
[13] = ORYSA: rice (Oryza sativa), crop, read-out: Visual Growth Reduction (%) 14 Days After Application, ORYSA
[14] = SETFA: giant foxtail (Setaria faberi), read-out: Visual Growth Reduction (%) 14 Days After Application, SETFA
[15] = SORVU: grain sorghum (Sorghum vulgare), read-out: Visual Growth Reduction (%) 14 Days After Application, SORVU
[16] = TRZSS (wheat, Triticum aestivum), crop, read-out: Visual Growth Reduction (%) 14 Days After Application, TRZSS
[17] = ZEAMX: maize, corn (Zea mays), crop, read-out: Visual Growth Reduction (%) 14 Days After Application, ZEAMX

## Nc1cc(-c2ccc(Br)c(F)c2F)nc(C(=O)O)c1Cl [Compound 91]
other
  melting point: 173 to 175 °C
[1]; [3]
  pest or weed control at 70 g/ha: 85 to 94%
  pest or weed control at 140 g/ha: 95 to 100%
[1]; [4]
  pest or weed control at 70 g/ha: 95 to 100%
  pest or weed control at 140 g/ha: 95 to 100%
[1]; [5]
  pest or weed control at 70 g/ha: 75 to 84%
  pest or weed control at 140 g/ha: 85 to 94%
[1]; [6]
  pest or weed control at 70 g/ha: 85 to 94%
  pest or weed control at 140 g/ha: 85 to 94%
[1]; [7]
  pest or weed control at 70 g/ha: 95 to 100%
  pest or weed control at 140 g/ha: 95 to 100%
[1]; [8]
  pest or weed control at 70 g/ha: 85 to 94%
  pest or weed control at 140 g/ha: 85 to 94%
[1]; [9]
  pest or weed control at 70 g/ha: 95 to 100%
  pest or weed control at 140 g/ha: 95 to 100%
[2]; [10]
  pest or weed control at 70 g/ha: 95 to 100%
  pest or weed control at 140 g/ha: 95 to 100%
[2]; [11]
  pest or weed control at 70 g/ha: 85 to 94%
  pest or weed control at 140 g/ha: 85 to 94%
[2]; [12]
  pest or weed control at 70 g/ha: 95 to 100%
  pest or weed control at 140 g/ha: 95 to 100%
[2]; [13]
  pest or weed control at 70 g/ha: 0 to 29%
  pest or weed control at 140 g/ha: 0 to 29%
[2]; [14]
  pest or weed control at 70 g/ha: 75 to 84%
  pest or weed control at 140 g/ha: 85 to 94%
[2]; [15]
  pest or weed control at 70 g/ha: 75 to 84%
  pest or weed control at 140 g/ha: 75 to 84%
[2]; [16]
  pest or weed control at 70 g/ha: 45 to 59%
  pest or weed control at 140 g/ha: 45 to 59%
[2]; [17]
  pest or weed control at 70 g/ha: 85 to 94%
  pest or weed control at 140 g/ha: 85 to 94%

## C#Cc1ccc(-c2nc(C(=O)OC)c(Cl)c(N)c2F)c(F)c1F [Compound 22]
other
  melting point: 190 to 192 °C
[1]; [3]
  pest or weed control at 70 g/ha: 0 to 29%
  pest or weed control at 140 g/ha: 0 to 29%
[1]; [4]
  pest or weed control at 70 g/ha: 0 to 29%
  pest or weed control at 140 g/ha: 0 to 29%
[1]; [5]
  pest or weed control at 70 g/ha: 0 to 29%
  pest or weed control at 140 g/ha: 60 to 74%
[1]; [6]
  pest or weed control at 70 g/ha: 45 to 59%
  pest or weed control at 140 g/ha: 75 to 84%
[1]; [7]
  pest or weed control at 70 g/ha: 0 to 29%
  pest or weed control at 140 g/ha: 95 to 100%
[1]; [8]
  pest or weed control at 70 g/ha: 45 to 59%
  pest or weed control at 140 g/ha: 75 to 84%
[1]; [9]
  pest or weed control at 70 g/ha: 0 to 29%
  pest or weed control at 140 g/ha: 0 to 29%
[2]; [10]
  pest or weed control at 70 g/ha: 0 to 29%
  pest or weed control at 140 g/ha: 0 to 29%
[2]; [11]
  pest or weed control at 70 g/ha: 0 to 29%
  pest or weed control at 140 g/ha: 0 to 29%
[2]; [12]
  pest or weed control at 70 g/ha: 0 to 29%
  pest or weed control at 140 g/ha: 45 to 59%
[2]; [13]
  pest or weed control at 70 g/ha: 0 to 29%
  pest or weed control at 140 g/ha: 0 to 29%
[2]; [14]
  pest or weed control at 70 g/ha: 0 to 29%
  pest or weed control at 140 g/ha: 0 to 29%
[2]; [15]
  pest or weed control at 70 g/ha: 0 to 29%
  pest or weed control at 140 g/ha: 0 to 29%
[2]; [16]
  pest or weed control at 70 g/ha: 0 to 29%
  pest or weed control at 140 g/ha: 0 to 29%
[2]; [17]
  pest or weed control at 70 g/ha: 0 to 29%
  pest or weed control at 140 g/ha: 45 to 59%

## C#Cc1ccc(-c2nc(C(=O)O)c(Cl)c(N)c2F)cc1F [Compound 71]
other
  melting point: 157 to 160 °C (dec.)
[1]; [3]
  pest or weed control at 70 g/ha: 0 to 29%
  pest or weed control at 140 g/ha: 45 to 59%
[1]; [4]
  pest or weed control at 70 g/ha: 60 to 74%
  pest or weed control at 140 g/ha: 75 to 84%
[1]; [5]
  pest or weed control at 70 g/ha: 45 to 59%
  pest or weed control at 140 g/ha: 45 to 59%
[1]; [6]
  pest or weed control at 70 g/ha: 85 to 94%
  pest or weed control at 140 g/ha: 85 to 94%
[1]; [7]
  pest or weed control at 70 g/ha: 95 to 100%
  pest or weed control at 140 g/ha: 95 to 100%
[1]; [8]
  pest or weed control at 70 g/ha: 60 to 74%
  pest or weed control at 140 g/ha: 75 to 84%
[1]; [9]
  pest or weed control at 70 g/ha: 0 to 29%
  pest or weed control at 140 g/ha: 0 to 29%
[2]; [10]
  pest or weed control at 70 g/ha: 0 to 29%
  pest or weed control at 140 g/ha: 0 to 29%
[2]; [11]
  pest or weed control at 70 g/ha: 60 to 74%
  pest or weed control at 140 g/ha: 45 to 59%
[2]; [12]
  pest or weed control at 70 g/ha: 85 to 94%
  pest or weed control at 140 g/ha: 85 to 94%
[2]; [13]
  pest or weed control at 70 g/ha: 0 to 29%
  pest or weed control at 140 g/ha: 0 to 29%
[2]; [14]
  pest or weed control at 70 g/ha: 60 to 74%
  pest or weed control at 140 g/ha: 60 to 74%
[2]; [15]
  pest or weed control at 70 g/ha: 30 to 44%
  pest or weed control at 140 g/ha: 45 to 59%
[2]; [16]
  pest or weed control at 70 g/ha: 30 to 44%
  pest or weed control at 140 g/ha: 45 to 59%
[2]; [17]
  pest or weed control at 70 g/ha: 95 to 100%
  pest or weed control at 140 g/ha: 95 to 100%

## COc1c(N)nc(-c2ccc(I)c(F)c2F)nc1C(=O)O [Compound 89]
other
  melting point: 119 to 121 °C
[1]; [3]
  pest or weed control at 70 g/ha: 85 to 94%
  pest or weed control at 140 g/ha: 95 to 100%
[1]; [4]
  pest or weed control at 70 g/ha: 85 to 94%
  pest or weed control at 140 g/ha: 95 to 100%
[1]; [5]
  pest or weed control at 70 g/ha: 95 to 100%
  pest or weed control at 140 g/ha: 95 to 100%
[1]; [6]
  pest or weed control at 70 g/ha: 95 to 100%
  pest or weed control at 140 g/ha: 95 to 100%
[1]; [7]
  pest or weed control at 70 g/ha: 95 to 100%
  pest or weed control at 140 g/ha: 95 to 100%
[1]; [8]
  pest or weed control at 70 g/ha: 95 to 100%
  pest or weed control at 140 g/ha: 95 to 100%
[1]; [9]
  pest or weed control at 70 g/ha: 95 to 100%
  pest or weed control at 140 g/ha: 95 to 100%
[2]; [10]
  pest or weed control at 70 g/ha: 45 to 59%
  pest or weed control at 140 g/ha: 95 to 100%
[2]; [11]
  pest or weed control at 70 g/ha: 45 to 59%
  pest or weed control at 140 g/ha: 60 to 74%
[2]; [12]
  pest or weed control at 70 g/ha: 85 to 94%
  pest or weed control at 140 g/ha: 85 to 94%
[2]; [13]
  pest or weed control at 70 g/ha: 0 to 29%
  pest or weed control at 140 g/ha: 60 to 74%
[2]; [14]
  pest or weed control at 70 g/ha: 85 to 94%
  pest or weed control at 140 g/ha: 85 to 94%
[2]; [15]
  pest or weed control at 70 g/ha: 85 to 94%
  pest or weed control at 140 g/ha: 95 to 100%
[2]; [16]
  pest or weed control at 70 g/ha: 0 to 29%
  pest or weed control at 140 g/ha: 45 to 59%
[2]; [17]
  pest or weed control at 70 g/ha: 45 to 59%
  pest or weed control at 140 g/ha: 95 to 100%
